Experimental data as given in ChEMBL document CHEMBL1151451 (Antimicrob Agents Chemother, 2007).
Converted amounts (≈) assume the structure as drawn.

Key:
[1] = tested on: Mycobacterium tuberculosis; assay type: functional
[2] = AUC in human at 400 mg, po; assay type: ADME, organism-based; conditions: plasma
[3] = tested on: Mycobacterium tuberculosis; experiment: Antimicrobial activity against Mycobacterium tuberculosis H37Rv infected in CD-1 mouse lung at 75 mg/kg administered through gavage; assay type: functional
[4] = AUC (0 to 24 hrs) in CD-1 mouse at […] administered through gavage; assay type: ADME, organism-based; conditions: plasma, po
[5] = tested on: Mycobacterium tuberculosis; experiment: Antimicrobial activity against Mycobacterium tuberculosis H37Rv infected in CD-1 mouse lung; assay type: functional
[6] = tested on: Mycobacterium tuberculosis; experiment: Antimicrobial activity against avirulent Mycobacterium tuberculosis H37Ra
[7] = tested on: Mycobacterium tuberculosis; assay type: functional; remark: listed apart in the source
[8] = Drug level in CD-1 mouse serum at […] administered through gavage after 24 hrs; assay type: ADME; conditions: po, read-out: Drug uptake

Compound `COc1c(N2C[C@@H]3CCCN[C@@H]3C2)c(F)cc2c(=O)c(C(=O)O)cn(C3CC3)c12` [MOXIFLOXACIN] has a log10cfu [1] of 3.48, an AUC [2] of 26900 ng·h/mL and a log10cfu [3] of 0.93. It also gave an AUC(0-t) [4] of 27400 ng·h/mL, a log10cfu [5] of 7.87 and an MIC [6] of 0.25 µg/mL (≈ 0.623 µM). For the same compound, the log10cfu [7] was 8.61 and the concentration at 24 h [8] was 8000 ng/mL.
